Source: patent publication US11701359B2, “Exon 18 and/or exon 21 mutant EGFR selective inhibitor” (priority 2017, dated 2023)
Like-named read-outs stand apart in the source and are kept apart here.

Columns and labels:
[1] = target: T1, human EGFR G719C (Homo sapiens, UniProt P00533, G719C); assay: Intracellular EGFR phosphorylation in mutant EGFR forced expression system using HEK293 cells; format: cell-based; conditions: HEK293 cells expressing human EGFR G719C, 6 hours; read-out: IC50, phosphorylated EGFR inhibition, G719C
T1 construct: expressed in transfected cells; host or cells: Jump-In Grip HEK293 cells (Thermo Fisher Scientific), pJTI R4 DEST CMV pA vector
T1 sequence (P00533 25-1210 G719C): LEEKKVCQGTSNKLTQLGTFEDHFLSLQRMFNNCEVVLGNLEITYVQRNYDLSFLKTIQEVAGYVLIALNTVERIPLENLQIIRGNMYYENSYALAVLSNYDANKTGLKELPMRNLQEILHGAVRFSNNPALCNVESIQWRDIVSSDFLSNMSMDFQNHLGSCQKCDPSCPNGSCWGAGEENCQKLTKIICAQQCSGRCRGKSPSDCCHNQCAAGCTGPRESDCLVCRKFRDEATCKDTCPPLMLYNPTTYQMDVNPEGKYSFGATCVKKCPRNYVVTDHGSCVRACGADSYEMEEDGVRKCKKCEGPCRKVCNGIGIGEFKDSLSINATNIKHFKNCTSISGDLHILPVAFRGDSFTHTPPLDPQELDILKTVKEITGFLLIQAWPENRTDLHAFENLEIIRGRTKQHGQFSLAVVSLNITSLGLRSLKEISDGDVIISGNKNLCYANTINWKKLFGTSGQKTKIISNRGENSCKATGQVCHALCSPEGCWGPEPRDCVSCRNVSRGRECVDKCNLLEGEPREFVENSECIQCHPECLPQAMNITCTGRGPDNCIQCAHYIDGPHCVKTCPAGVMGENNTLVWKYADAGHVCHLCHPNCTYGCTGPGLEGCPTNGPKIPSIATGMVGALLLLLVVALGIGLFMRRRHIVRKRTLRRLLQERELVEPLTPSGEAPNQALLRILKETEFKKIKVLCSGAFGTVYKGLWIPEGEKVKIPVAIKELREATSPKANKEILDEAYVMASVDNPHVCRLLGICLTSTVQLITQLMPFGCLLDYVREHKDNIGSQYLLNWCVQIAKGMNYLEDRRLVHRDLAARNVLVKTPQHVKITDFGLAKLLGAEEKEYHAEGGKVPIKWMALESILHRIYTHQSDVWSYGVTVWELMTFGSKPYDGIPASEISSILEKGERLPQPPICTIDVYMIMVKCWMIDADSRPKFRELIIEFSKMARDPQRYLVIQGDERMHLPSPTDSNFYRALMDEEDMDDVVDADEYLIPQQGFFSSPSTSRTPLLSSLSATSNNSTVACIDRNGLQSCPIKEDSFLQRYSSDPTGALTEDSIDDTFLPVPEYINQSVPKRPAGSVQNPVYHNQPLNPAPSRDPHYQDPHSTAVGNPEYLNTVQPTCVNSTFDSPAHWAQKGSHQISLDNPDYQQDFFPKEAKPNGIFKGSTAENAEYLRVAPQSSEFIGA

[2] = tested on: Ba/F3-EGFR_WT cells; assay: Cell growth inhibitory effect, wild-type EGFR-expressing Ba/F3 cell line (CellTiter-Glo); format: cell-based; conditions: Mus musculus, BaF3, 72 h, read-out: IC50 (nM) WT
Experimental: (§1) Evaluation of Cell Growth Inhibitory Effect Against Wild-Type EGFR- and Mutant EGFR-Expressing Cell Line (In Vitro)
(§2) The inhibitory activity of compounds against wild-type EGFR and mutant EGFR was evaluated using Ba/F3 cells, which are mouse B-lymphocyte precursor cell line to which a human EGFR gene was introduced.
(§3) The solutions were then added to each well of the culture plate of the cells, and the cells were incubated in a 5% CO2 gas-containing incubator at 37° C. for 3 days. The cell count after incubation was measured by a CellTiter-Glo (trademark) Luminescent Cell Viability Assay (Promega Corporation) in accordance with the manufacturer's recommended protocol.

[3] = tested on: Ba/F3-EGFR G719A cells; assay: Cell growth inhibitory effect, G719A mutant EGFR-expressing Ba/F3 cell line (CellTiter-Glo); format: cell-based, mouse; conditions: for IC50: Mus musculus, 72 h, read-out: IC50 (nM) G719A
Experimental: as §1, §2, §3

[4] = target: T2, human EGFR G719A (Homo sapiens, UniProt P00533, G719A); assay: Intracellular EGFR phosphorylation in mutant EGFR forced expression system using HEK293 cells; format: cell-based; conditions: HEK293 cells expressing human EGFR G719A, 6 hours; read-out: IC50, phosphorylated EGFR inhibition, G719A
T2 construct: expressed in transfected cells; host or cells: Jump-In Grip HEK293 cells (Thermo Fisher Scientific), pJTI R4 DEST CMV pA vector
T2 sequence (P00533 25-1210 G719A): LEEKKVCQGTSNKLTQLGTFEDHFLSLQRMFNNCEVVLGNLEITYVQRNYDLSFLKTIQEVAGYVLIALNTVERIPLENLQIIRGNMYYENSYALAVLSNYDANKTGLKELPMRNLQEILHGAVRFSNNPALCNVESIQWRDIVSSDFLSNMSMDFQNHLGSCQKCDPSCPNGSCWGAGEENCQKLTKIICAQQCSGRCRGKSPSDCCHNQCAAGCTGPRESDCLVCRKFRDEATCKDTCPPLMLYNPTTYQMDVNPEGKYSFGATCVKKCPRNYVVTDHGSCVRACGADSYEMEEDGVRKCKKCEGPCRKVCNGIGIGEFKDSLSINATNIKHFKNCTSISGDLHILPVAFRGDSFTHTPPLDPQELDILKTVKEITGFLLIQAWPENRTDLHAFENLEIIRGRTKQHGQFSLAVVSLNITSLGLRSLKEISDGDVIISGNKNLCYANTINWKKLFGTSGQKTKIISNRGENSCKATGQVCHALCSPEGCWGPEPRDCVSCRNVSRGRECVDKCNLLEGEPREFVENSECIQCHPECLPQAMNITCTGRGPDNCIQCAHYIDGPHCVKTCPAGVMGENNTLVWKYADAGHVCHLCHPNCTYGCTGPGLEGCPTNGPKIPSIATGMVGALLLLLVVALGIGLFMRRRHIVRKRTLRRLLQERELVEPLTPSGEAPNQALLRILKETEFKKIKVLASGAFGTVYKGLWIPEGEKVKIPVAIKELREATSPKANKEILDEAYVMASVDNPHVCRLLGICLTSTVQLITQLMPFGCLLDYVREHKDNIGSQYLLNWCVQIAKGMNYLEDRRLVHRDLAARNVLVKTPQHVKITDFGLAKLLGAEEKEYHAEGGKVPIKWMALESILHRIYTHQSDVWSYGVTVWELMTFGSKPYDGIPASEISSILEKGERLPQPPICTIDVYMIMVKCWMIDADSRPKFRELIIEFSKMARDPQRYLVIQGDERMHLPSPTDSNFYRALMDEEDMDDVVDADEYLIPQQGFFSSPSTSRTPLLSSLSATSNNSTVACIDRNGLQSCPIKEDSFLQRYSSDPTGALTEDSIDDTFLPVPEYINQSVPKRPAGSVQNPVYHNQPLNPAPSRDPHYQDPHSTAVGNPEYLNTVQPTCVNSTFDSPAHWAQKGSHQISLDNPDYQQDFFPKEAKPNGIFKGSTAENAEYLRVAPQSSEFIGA

[5] = target: T3, human EGFR E709A (Homo sapiens, UniProt P00533, E709A); assay: as above; format: cell-based; conditions: HEK293 cells expressing human EGFR E709A, 6 hours; read-out: IC50, phosphorylated EGFR inhibition, E709A
T3 construct: expressed in transfected cells; host or cells: Jump-In Grip HEK293 cells (Thermo Fisher Scientific), pJTI R4 DEST CMV pA vector
T3 sequence (P00533 25-1210 E709A): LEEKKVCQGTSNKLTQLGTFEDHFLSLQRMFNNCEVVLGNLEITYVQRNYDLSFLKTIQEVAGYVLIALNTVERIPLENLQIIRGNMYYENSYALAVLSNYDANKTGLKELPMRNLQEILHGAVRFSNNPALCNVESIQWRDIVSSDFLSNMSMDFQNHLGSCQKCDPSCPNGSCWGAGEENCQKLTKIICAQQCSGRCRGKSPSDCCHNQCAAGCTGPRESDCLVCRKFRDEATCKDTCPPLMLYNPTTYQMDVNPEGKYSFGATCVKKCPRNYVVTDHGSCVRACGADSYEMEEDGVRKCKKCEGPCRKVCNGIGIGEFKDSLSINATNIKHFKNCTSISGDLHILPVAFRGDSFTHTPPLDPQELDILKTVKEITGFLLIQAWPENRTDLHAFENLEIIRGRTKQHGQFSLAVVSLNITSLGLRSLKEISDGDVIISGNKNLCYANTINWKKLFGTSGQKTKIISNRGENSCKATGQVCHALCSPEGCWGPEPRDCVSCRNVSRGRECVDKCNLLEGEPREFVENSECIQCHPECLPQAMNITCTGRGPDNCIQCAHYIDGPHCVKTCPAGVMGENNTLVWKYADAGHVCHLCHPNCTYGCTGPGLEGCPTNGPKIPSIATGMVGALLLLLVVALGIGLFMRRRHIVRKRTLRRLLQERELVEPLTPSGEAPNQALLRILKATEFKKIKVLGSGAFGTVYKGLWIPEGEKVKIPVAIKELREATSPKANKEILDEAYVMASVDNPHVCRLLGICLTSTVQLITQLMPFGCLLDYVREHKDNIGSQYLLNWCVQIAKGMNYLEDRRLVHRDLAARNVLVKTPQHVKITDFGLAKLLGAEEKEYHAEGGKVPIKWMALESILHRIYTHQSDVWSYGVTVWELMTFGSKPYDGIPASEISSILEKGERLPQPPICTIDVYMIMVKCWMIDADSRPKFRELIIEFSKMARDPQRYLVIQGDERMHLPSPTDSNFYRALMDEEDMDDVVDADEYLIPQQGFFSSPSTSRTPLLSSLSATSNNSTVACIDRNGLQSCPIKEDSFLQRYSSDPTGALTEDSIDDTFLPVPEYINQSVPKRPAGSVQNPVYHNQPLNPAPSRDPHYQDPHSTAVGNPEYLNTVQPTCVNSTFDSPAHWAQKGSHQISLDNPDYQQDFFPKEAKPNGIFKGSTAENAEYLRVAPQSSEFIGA

[6] = target: T4, human EGFR G719S (Homo sapiens, UniProt P00533, G719S); assay: as above; format: cell-based; conditions: HEK293 cells expressing human EGFR G719S, 6 hours; read-out: IC50, phosphorylated EGFR inhibition, G719S
T4 construct: expressed in transfected cells; host or cells: Jump-In Grip HEK293 cells (Thermo Fisher Scientific), pJTI R4 DEST CMV pA vector

[7] = target: T5, human EGFR G719A+T790M (Homo sapiens, UniProt P00533, G719A/T790M); assay: as above; format: cell-based; conditions: HEK293 cells expressing human EGFR G719A+T790M, 6 hours; read-out: IC50, phosphorylated EGFR inhibition, G719A + T790M
T5 construct: expressed in transfected cells; host or cells: Jump-In Grip HEK293 cells (Thermo Fisher Scientific), pJTI R4 DEST CMV pA vector

[8] = tested on: NIH3T3-EGFR G719A+T790M cells; assay: in vivo; conditions: nude mice; for T/C (%): final evaluation day
Experimental: (§4) The maximum tolerated dose was determined in accordance with the “Guidelines Involving Experimental Neoplasia Proposals in Mice and Rats” of the National Cancer Institute (NCI), from a humanitarian perspective.
(§5) To compare the changes in growth of tumor over time due to administration of the individual test compounds, the tumor volume (which may be hereinafter referred to as “TV”) was used as an index. […] For a toxicity index, the body weight was measured over time, and the body weight change (which may be hereinafter referred to as “BWC (%)”) from the day on which the mice were divided into groups was calculated in accordance with the following formula. […] BWC (%)=(the body weight measured on body weight measurement day)/(the body weight on the day mice were divided into groups)
(§6) A Dunnett's test was performed using the average TV on the final evaluation day as an index. […] T/C (%)=(the average TV of the group administered with a test compound)/(the average TV of the control group)×100

[9] = in vivo; conditions: mouse, in vivo; nude mice, oral once daily, 14 days, G719A+T790M model; read-out: Maximum tolerated dose (weight loss during dosing period less than 20%)
Experimental: as §4, §5, §6

[10] = tested on: Ba/F3-EGFR L861Q+T790M cells; assay: Cell growth inhibitory effect, L861Q+T790M mutant EGFR-expressing Ba/F3 cell line (CellTiter-Glo); format: cell-based, mouse; conditions: for IC50: Mus musculus, 72 h, read-out: IC50 (nM) L861Q + T790M
Experimental: (§7) These solutions were then added to each well of the culture plate of the cells, and incubated in a 5% CO2 gas-containing incubator at 37° C. for 3 days. The cell count after incubation was measured using a CellTiter-Glo (trademark) Luminescent Cell Viability Assay (Promega Corporation), in accordance with the manufacturer's recommended protocol.

[11] = target: T6, human EGFR L861Q (Homo sapiens, UniProt P00533, L861Q); assay: Intracellular EGFR phosphorylation in mutant EGFR forced expression system using HEK293 cells; format: cell-based; conditions: HEK293 cells expressing human EGFR L861Q, 6 hours; read-out: IC50, phosphorylated EGFR inhibition, L861Q
T6 construct: expressed in transfected cells; host or cells: Jump-In Grip HEK293 cells (Thermo Fisher Scientific), pJTI R4 DEST CMV pA vector

[12] = tested on: NIH3T3-EGFR G719A cells; assay: Antitumor effect on mouse model subcutaneously transplanted with G719A mutant EGFR-expressing cell line; conditions: nude mice
Experimental: as §4
(§8) To compare the changes in growth of tumor over time due to administration of the individual test compounds, the tumor volume (which may be hereinafter referred to as “TV”) was used as an index. For a toxicity index, the body weight was measured over time, and the body weight change (which may be hereinafter referred to as “BWC (%)”) from the day on which the mice were divided into groups was calculated in accordance with the following formula. BWC (%)=(the body weight measured on body weight measurement day)/(the body weight on the day mice were divided into groups)
(§9) T/C (%)=(the average TV of the group administered with a test compound)/(the average TV of the control group)×100

[13] = as above; conditions: nude, mouse, in vivo, po
Experimental: as §4, §8, §9

[14] = tested on: Ba/F3-EGFR G719A+T790M cells; assay: Cell growth inhibitory effect, G719A+T790M mutant EGFR-expressing Ba/F3 cell line (CellTiter-Glo); format: cell-based, mouse; conditions: for IC50: Mus musculus, 72 h, read-out: IC50 (nM) G719A + T790M
Experimental: as §7

[15] = target: T7, human EGFR L861Q+T790M (Homo sapiens, UniProt P00533, L861Q/T790M); assay: Intracellular EGFR phosphorylation in mutant EGFR forced expression system using HEK293 cells; format: cell-based; conditions: HEK293 cells expressing human EGFR L861Q+T790M, 6 hours; read-out: IC50, phosphorylated EGFR inhibition, L861Q + T790M
T7 construct: expressed in transfected cells; host or cells: Jump-In Grip HEK293 cells (Thermo Fisher Scientific), pJTI R4 DEST CMV pA vector
T7 sequence (P00533 25-1210 T790M/L861Q): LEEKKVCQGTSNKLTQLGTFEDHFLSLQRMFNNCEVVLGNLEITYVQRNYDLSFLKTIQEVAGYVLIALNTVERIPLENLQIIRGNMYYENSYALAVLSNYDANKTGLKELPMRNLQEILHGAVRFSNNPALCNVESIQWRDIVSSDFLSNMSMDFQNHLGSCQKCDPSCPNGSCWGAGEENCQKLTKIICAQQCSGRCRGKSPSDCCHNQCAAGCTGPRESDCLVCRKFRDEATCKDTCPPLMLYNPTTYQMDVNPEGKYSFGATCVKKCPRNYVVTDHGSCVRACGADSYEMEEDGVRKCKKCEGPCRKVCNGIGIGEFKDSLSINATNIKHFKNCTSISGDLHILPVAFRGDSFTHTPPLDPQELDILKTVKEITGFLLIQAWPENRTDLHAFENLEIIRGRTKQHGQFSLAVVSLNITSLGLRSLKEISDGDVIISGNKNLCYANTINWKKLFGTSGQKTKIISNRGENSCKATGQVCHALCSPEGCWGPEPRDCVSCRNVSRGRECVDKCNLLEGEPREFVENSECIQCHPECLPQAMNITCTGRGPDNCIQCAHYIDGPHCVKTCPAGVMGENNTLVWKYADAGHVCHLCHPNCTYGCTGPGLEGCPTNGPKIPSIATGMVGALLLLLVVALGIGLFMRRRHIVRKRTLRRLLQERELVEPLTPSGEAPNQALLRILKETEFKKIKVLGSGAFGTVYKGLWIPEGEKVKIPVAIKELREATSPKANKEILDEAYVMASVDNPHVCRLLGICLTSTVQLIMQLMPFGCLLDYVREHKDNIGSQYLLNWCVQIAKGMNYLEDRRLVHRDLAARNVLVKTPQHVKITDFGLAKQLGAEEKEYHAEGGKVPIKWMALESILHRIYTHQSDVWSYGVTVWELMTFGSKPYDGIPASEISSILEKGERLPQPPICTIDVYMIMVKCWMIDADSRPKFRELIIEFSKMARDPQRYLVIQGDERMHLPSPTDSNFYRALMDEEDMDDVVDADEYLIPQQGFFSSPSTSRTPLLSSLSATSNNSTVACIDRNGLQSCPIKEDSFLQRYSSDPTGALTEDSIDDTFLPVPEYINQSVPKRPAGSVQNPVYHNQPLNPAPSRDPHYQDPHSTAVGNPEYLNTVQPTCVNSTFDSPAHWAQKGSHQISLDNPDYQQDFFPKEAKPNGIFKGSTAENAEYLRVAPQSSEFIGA

[16] = target: T8, human EGFR E709K (Homo sapiens, UniProt P00533, E709K); assay: as above; format: cell-based; conditions: HEK293 cells expressing human EGFR E709K, 6 hours; read-out: IC50, phosphorylated EGFR inhibition, E709K
T8 construct: expressed in transfected cells; host or cells: Jump-In Grip HEK293 cells (Thermo Fisher Scientific), pJTI R4 DEST CMV pA vector

[17] = tested on: Ba/F3-EGFR L861Q cells; assay: Cell growth inhibitory effect, L861Q mutant EGFR-expressing Ba/F3 cell line (CellTiter-Glo); format: cell-based, mouse; conditions: for IC50: Mus musculus, 72 h, read-out: IC50 (nM) L861Q
Experimental: as §1, §2, §3

Structure (SMILES): C=CC(=O)N[C@H]1C=C(C)c2c(-c3cnc4ccccc4c3)c3c(N)ncnc3n2C1 [Compound A, (S)-N-(4-amino-6-methyl-5-(quinolin-3-yl)-8,9-dihydropyrimido[5,4-b]indolizin-8-yl)acrylamide]
- IC50 [1]: 9.3 µM
- IC50 ([2]; Ba/F3 cells with human wild-type EGFR, 50 ng/mL EGF, 3 days): 597 nM
- IC50 Ratio WT/G719A ([3]; IC50 (WT)/IC50 (G719A), Ba/F3 cells): 66.4
- IC50 ([3]; Ba/F3 cells with human EGFR G719A, no EGF, 3 days): 9 nM
- IC50 [4]: 20.5 µM
- IC50 [5]: 103 µM
- IC50 [6]: 22.7 µM
- IC50 [7]: 31.3 µM
- T/C (%) ([8]; 50 mg/kg, oral once daily): 47.7%
- T/C (%) ([8]; 100 mg/kg, oral once daily): 36.4%
- T/C (%) ([8]; 200 mg/kg, oral once daily): 28.0%
- Symptoms (weight loss, abnormal feces, abnormal skin) ([8]; NIH3T3-EGFR G719A+T790M model, oral once daily, FIG. 4): without symptoms such as serious weight loss
- Antitumor effect (tumor volume) ([8]; NIH3T3-EGFR G719A+T790M subcutaneous, oral once daily, 50, 100, 200 mg/kg/day, FIG. 3): significant antitumor effect
- MTD at 14 days [9]: 200 mg/kg/day
- IC50 Ratio WT/L861Q + T790M ([10]; IC50 (WT)/IC50 (L861Q+T790M), Ba/F3 cells): 15.9
- IC50 ([10]; Ba/F3 cells with human EGFR L861Q+T790M, no EGF, 3 days): 37.5 nM
- IC50 [11]: 40.5 µM
- Symptoms (weight loss, abnormal feces, abnormal skin) ([12]; NIH3T3-EGFR G719A model, oral once daily 14 days, FIG. 2): did not show symptoms
- Antitumor effect (tumor volume) ([12]; NIH3T3-EGFR G719A subcutaneous, oral once daily 14 days, 50, 100, 200 mg/kg/day, FIG. 1): remarkable antitumor effect
- MTD at 14 days [13]: 200 mg/kg/day
- IC50 Ratio WT/G719A + T790M ([14]; IC50 (WT)/IC50 (G719A+T790M), Ba/F3 cells): 37.9
- IC50 ([14]; Ba/F3 cells with human EGFR G719A+T790M, no EGF, 3 days): 15.8 nM
- IC50 [15]: 81.8 µM
- IC50 [16]: 86 µM
- IC50 Ratio WT/L861Q ([17]; IC50 (WT)/IC50 (L861Q), Ba/F3 cells): 31.4
- IC50 ([17]; Ba/F3 cells with human EGFR L861Q, no EGF, 3 days): 19 nM

Structure (SMILES): C=CC(=O)Nc1cc(Nc2nccc(-c3cn(C)c4ccccc34)n2)c(OC)cc1N(C)CCN(C)C [Osimertinib, osimertinib, reference compound]
- IC50 [2]: 379 nM
- IC50 ([3]; Ba/F3 EGFR): 209 nM
- IC50 ([10]; Ba/F3 EGFR): 36.4 nM
- IC50 ([14]; Ba/F3 EGFR): 89.4 nM
- IC50 ([17]; Ba/F3 EGFR): 47 nM
